Data on 88 compounds can be found in the Bradley open melting point set (2014).

A word on the melting point: it is the temperature, or range, at which the solid turns liquid. Turning to `Cc1cc(F)ccc1O` [4-fluoro-2-methylphenol], the melting point is 34 °C.

In the case of `CCCCCCCCCC(=O)O` [Decanoic acid], the melting point came to 31 °C.

The compound `CCOC(=O)/C(=N/Nc1ccc(Cl)cc1)C(=O)C(F)(F)F` yielded a melting point of 76 °C.

Consider `COc1ccc(C2=CCC3(C)C(CCC4C3CCC3(C)C(OC(C)=O)CCC43)C2)cc1` (stereo not drawn) [3-(4-methoxyphenyl)androst-2-en-17-yl acetate], for which the melting point was 179 °C.

With `CC(=O)c1ccc(Cl)cc1Cl` [2,4-dichloroacetophenone], the melting point was determined as 34 °C.

`C=C1C[C@@H]2[C@H](CC[C@]3(C)C(=O)CC[C@@H]23)[C@@]2(C)C=CC(=O)C=C12` [Exemestane] yielded a melting point of 155 °C.

`COc1ccc(OC)c(C(C)=O)c1` [2,5-dimethoxyacetophenone] showed a melting point of 20 °C.

For `Oc1ccc(O)cc1` [hydroquinone], the melting point is 175 °C.

As for `NC1=NCC(c2ccccc2)O1` (stereo not drawn) [Aminorex], the melting point is 137 °C.

Regarding `O=C(O[C@@H]1[C@H]3C(=C/[C@H](C)C1)\C=C/[C@@H]([C@@H]3CC[C@H]2OC(=O)C[C@H](O)C2)C)[C@@H](C)CC` [lovastatin], the melting point is 174 °C.

On to `Cc1ccc(S(=O)(=O)OCCCOS(=O)(=O)c2ccc(C)cc2)cc1` [1,3-propanediol di-p-toluenesulfonate], for which the melting point came to 91 °C.

As for `Cc1cc(CCl)c(C)cc1CCl` [2,5-Di(Chloromethyl)-p-xylene], the melting point worked out at 132 °C.

Take `CC(=O)c1ccc(F)cc1O` [4'-fluoro-2'-hydroxyacetophenone]: the melting point stood at 32 °C.

In turn, `CC(CCC(=O)O)(c1ccc(O)cc1)c1ccc(O)cc1` [4,4-bis(4-hydroxyphenyl)valeric acid] yielded a melting point of 173 °C.

On to `CCCCc1ccc(C(=O)Oc2ccc(C#N)cc2)cc1` [4-cyanophenyl 4-n-butylbenzoate], for which the melting point was determined as 68 °C.

The compound `OC(C(F)(F)F)C(F)(F)F` [1,1,1,3,3,3-Hexafluoropropan-2-ol] showed a melting point of -3 °C.

As to `CCOC(=O)Cc1ccc(O)cc1` [ethyl 4-hydroxyphenylacetate], the melting point was found to be 37 °C.

Compound `N#Cc1cccc(Cl)c1` [3-chlorobenzonitrile] yielded a melting point of 41 °C.

On to `CC(C)=CCC/C(C)=C/CC/C(C)=C/CC/C=C(\C)CC/C=C(\C)CCC=C(C)C` [squalene], for which the melting point is -75 °C.

`NC(=O)CS(=O)C(c1ccccc1)c1ccccc1` (stereo not drawn) [Modafinil] displayed a melting point of 165 °C.

`COC(=O)c1ccccc1NC(=O)c1ccccc1` [methyl 2-(benzoylamino)benzoate] registered a melting point of 99 °C.

Turning to `O=C1CCCc2cc3c(c(CSc4ccccc4)c21)-c1ccccc1OC3`, the melting point turned out to be 91 °C.

On to `Cc1ccc(Cc2ccccc2)cc1` [4-benzyltoluene], for which the melting point was determined as 5 °C.

The compound `CC(C)[C@@H]1CC[C@@H](C)C[C@H]1O` [L-menthol] showed a melting point of 44 °C.

As for `Oc1ccc(F)cc1` [4-Fluorophenol], the melting point came to 45.5 °C.

`CC1(c2ccccc2B(O)O)OCCO1` [2-(2-methyl-1,3-dioxolan-2-yl)benzeneboronic acid]: the melting point came out at 111 °C.

The compound `Oc1ccccc1F` [2-fluorophenol] registered a melting point of 15 °C.

`C#CCO` [propargyl alcohol]: the melting point was -53 °C.

In turn, `CS(=O)c1ccc(cc1)/C=C3c2ccc(F)cc2C(CC(=O)O)=C3C` (stereo not drawn) [Sulindac] came in with a melting point of 183 °C.

On to `C[C@H]1c2cccc(O)c2C(=O)C2=C(O)[C@]3(O)C(=O)C(C(N)=O)=C(O)[C@@H](N(C)C)[C@@H]3[C@@H](O)[C@@H]21` [Doxycycline], for which the melting point stood at 201 °C.

In turn, `O=C(O)/C=C/c1ccccc1B(O)O` [2-(2-carboxyvinyl)benzeneboronic acid] had a melting point of 171 °C.

`CCOC(=O)CC(C)=O` [ethyl_acetoacetate] registered a melting point of -43 °C.

`COC(=O)[C@@H](N)Cc1ccc(O)cc1` [Methyl L-tyrosinate] showed a melting point of 134 °C.

As to `Cc1ccc(C)c(O)c1` [2,5-dimethylphenol], the melting point stood at 76 °C.

`C/C=C\C#N` [Z-crotononitrile] came in with a melting point of -72.6 °C.

For `C[C@@H]1C[C@@H]([C@H](O)CC2CC(=O)NC(=O)C2)C(=O)[C@@H](C)C1`, the melting point stood at 120 °C.

As to `Nc1cccc(N)n1` [2,6-diaminopyridine], the melting point amounted to 122 °C.

For the compound `CS(=O)(=O)c1ccc(C(=O)O)cc1` [4-(methylsulfonyl)benzoic acid], the melting point worked out at 273 °C.

`O=C(O)Cc1ccc([N+](=O)[O-])cc1` [4-nitrophenylacetic acid] returned a melting point of 154 °C.

In the case of `O=C[C@H](O)[C@@H](O)[C@@H](O)[C@H](O)CO` [D-galactose], the melting point was determined as 167 °C.

As for `OCC(O)C(O)CO` (stereo not drawn) [meso-erythritol], the melting point stood at 122 °C.

`C=CC(=O)OCC` [ethyl acrylate] had a melting point of -71 °C.

Compound `Oc1c(Br)cc(Br)cc1Br` [2,4,6-tribromophenol] had a melting point of 89 °C.

`NCCC(c1ccccc1)c1ccccc1` [3,3-diphenylpropylamine] yielded a melting point of 27 °C.

The compound `C=CCCCCCCCCC` [1-undecene] gave a melting point of -49 °C.

`NC(=O)c1cccc([N+](=O)[O-])c1` [m-nitrobenzamide]: the melting point was determined as 143 °C.

`COC(=O)c1ccccc1` [methyl_benzoate]: the melting point is -12 °C.

The compound `CC(C)CCC[C@@H](C)[C@H]1CC[C@H]2[C@@H]3CC[C@H]4C[C@@H](O)CC[C@]4(C)[C@H]3CC[C@]12C` [5alpha-cholestan-3beta-ol] showed a melting point of 142 °C.

In turn, `CCc1ccccc1O` [2-Ethylphenol] came in with a melting point of -28 °C.

`O=Cc1ccccc1O` [Salicylaldehyde]: the melting point turned out to be 1.5 °C.

As for `COc1ccc(-c2ccc(S(=O)(=O)Cl)cc2)cc1` [4'-methoxybiphenyl-4-sulfonyl chloride], the melting point was found to be 103 °C.

Turning to `O=[N+]([O-])c1ccc(I)cc1` [1-iodo-4-nitrobenzene], the melting point is 175 °C.

The compound `CNC(C)C(O)c1ccccc1` (stereo not drawn) [2-(Methylamino)-1-phenylpropan-1-ol] registered a melting point of 36 °C.

As for `O=Cc1ccccc1[N+](=O)[O-]` [2-nitrobenzaldehyde], the melting point amounted to 45 °C.

Take `O=c1on(-c2ccccc2)c(Br)c1-c1ccccc1` [3-bromo-2,4-diphenylisoxazol-5(2H)-one]: the melting point amounted to 166 °C.

The compound `O=C(O)C(Cl)Cl` [dichloroacetic acid] displayed a melting point of 10 °C.

Regarding `COc1ccc(/C=C2\N=C(c3ccccc3)OC2=O)cc1OC`, the melting point amounted to 133 °C.

On to `OC[C@@H](O)[C@@H](O)[C@H](O)[C@@H](O)CO` [sorbitol], for which the melting point stood at 111 °C.

For the compound `N#CCc1ccc([N+](=O)[O-])cc1` [p-nitrophenylacetonitrile], the melting point amounted to 116 °C.

The compound `C[C@H](NC(=O)OCc1ccccc1)C(=O)O` [N-benzyloxycarbonyl-l-alanine] showed a melting point of 85 °C.

For the compound `O=C(O)[C@@H]1CCCN1` [proline], the melting point was determined as 221 °C.

Compound `CC1(C)[C@H]2CC[C@]1(C)C(=O)C2` [Camphor] registered a melting point of 180 °C.

`O=C\1\C=C/[C@]4(/C(=C/1)CC[C@@H]2[C@@H]4[C@@H](O)C[C@@]3([C@@](O)(C(=O)CO)CC[C@@H]23)C)C` [prednisolone] yielded a melting point of 240 °C.

Compound `CC(C)(C)OC(=O)Nc1ccccc1B(O)O` [2-(boc-amino)benzeneboronic acid] yielded a melting point of 124 °C.

The compound `CCC1(CCC(C)C)C(=O)NC(=O)NC1=O` [amobarbital] had a melting point of 156 °C.

Consider `O=CC[C@H](O)[C@H](O)CO` [2-deoxy-D-ribose], for which the melting point amounted to 85 °C.

Regarding `CC1CCC(C(C)C)C(OC(=O)C2(C)CCC(C)C2(C)C)C1` (stereo not drawn), the melting point came out at 50 °C.

`O=c1[nH]cc(F)c(=O)[nH]1` [Fluorouracil] returned a melting point of 281 °C.

For `Cc1ccccc1/C=C(\C#N)c1nc2ccccc2s1` [(E)-2-Benzothiazol-2-yl-3-o-tolyl-acrylonitrile], the melting point was 149 °C.

Compound `CCCBr` [1-bromopropane] gave a melting point of -110 °C.

Compound `CC1(C)C=C(C(=O)O)C1` [Acid 9 (No name)] registered a melting point of 70 °C.

Consider `CC(=O)CC(=O)Nc1ccccc1` [3-Oxo-N-phenylbutanamide], for which the melting point is 86 °C.

With `COC(=O)c1ccccc1` [methyl benzoate], the melting point is -12 °C.

The compound `Cn1cnc(C(=O)O)c1` [1-methylimidazole-4-carboxylic acid] gave a melting point of 242 °C.

`N#C/C(=C\c1ccc(Cl)cc1)c1nc(-c2cccc3ccccc23)cs1` gave a melting point of 131 °C.

Take `CC1=CC(c2c(C)cc(C)cc2C)N=N1` (stereo not drawn) [5-methyl-3-(2,4,6-trimethylphenyl)-1H-pyrazole]: the melting point worked out at 129 °C.

For the compound `C/C=C/CCCCC` [trans-2-octene], the melting point is -88 °C.

Take `Nc1cccc(C(=O)O)c1` [3-aminobenzoic acid]: the melting point was determined as 175 °C.

Regarding `COc1ccc(S(=O)(=O)Cl)cc1` [4-methoxybenzenesulfonyl chloride], the melting point stood at 40 °C.

With `CC(CC(=O)O)C(=O)O` (stereo not drawn) [2-Methylsuccinic acid], the melting point was determined as 111 °C.

Consider `CN(C)S(C)(=O)=O` [N,N-dimethylmethanesulfonamide], for which the melting point worked out at 48 °C.

The compound `CC(Cl)C(=O)O` (stereo not drawn) [2-Chloropropanoic acid] registered a melting point of -13 °C.

`Nc1ncc(C(F)(F)F)cc1Br` [2-amino-3-bromo-5-(trifluoromethyl)pyridine] showed a melting point of 100 °C.

For `N#Cc1cccc(C#N)c1` [isophthalonitrile], the melting point is 161 °C.

`C[C@]12CC[C@H](O)CC1=CC[C@@H]1[C@@H]2CC[C@]2(C)C(=O)CC[C@@H]12` [3-Beta-Hydroxy-5-Androsten-17-One] came in with a melting point of 140 °C.

Compound `CC(=O)/C(=N/Nc1cc(Cl)ccc1Cl)C(=O)C(F)(F)F` displayed a melting point of 84 °C.

Turning to `OCCCl` [2-chloroethanol], the melting point is -63 °C.

In turn, `CN1[C@@H]2CC[C@H]1C[C@@H](O)C2` [tropine] gave a melting point of 63 °C.
